From patent US9169290B2, “Peptides and their use” (priority 2007, dated 2015)
≈ marks a conversion by molar mass, not a printed value. Like-named read-outs stand apart in the source and are kept apart here. Each block holds one compound with its values, some of them ahead of it. Ends that are not written are not given here. Peptide text beside a SMILES is read from it.

Columns and labels:
C. albicans = assay type: cell-based, Candida albicans
Procedure: (§1) Broth Dilution Antifungal Susceptibility Testing
(§2) The sensitivity of relevant fungal strains to the peptides was determined using Clinical Laboratory Standard Institute (CLSI; formerly NCCLS) Approved Standards.

C. krusei = assay type: cell-based, Candida krusei
Procedure: as §1, §2

C. parapsilosis = assay type: cell-based, Candida parapsilosis
Procedure: as §1
The sensitivity of relevant fungal strains to the peptides was determined using Clinical Laboratory Standard Institute (CLSI; formerly NCCLS) Approved Standards. Fungal susceptibility was tested using “Reference Method for Broth Dilution Antifungal Susceptibility Testing of Filamentous Fungi; […];

Malasezzia furfur = assay type: cell-based
Procedure: as §1, §2

Trichophyton rubrum = assay type: cell-based
Procedure: as §1, §2

C. tropicalis = assay: Broth dilution antifungal susceptibility testing of yeasts (CLSI M27-A), MIC; assay type: cell-based, Candida tropicalis; conditions: C. tropicalis strain ATCC750
Procedure: as §1
The sensitivity of relevant fungal strains to the peptides was determined using Clinical Laboratory Standard Institute (CLSI; formerly NCCLS) Approved Standards. Fungal susceptibility was tested using “Reference Method for Broth Dilution Antifungal Susceptibility Testing of Filamentous Fungi; Approved Standard M38-P”, and yeast susceptibility was tested using “Reference Method for Broth Dilution Antifungal Susceptibility Testing of Yeasts; Approved Standard—Second Edition M27-A”.

[1] = C. parapsilosis strain ATCC22019
[2] = C. parapsilosis strain ATCC90018
[3] = Malasezzia furfur strain DSM6170
[4] = Candida spp. Type Strains MIC Data table, strain NCPF3953

Compound: N=C(N)NCCC[C@H](NC(=O)[C@H](CCCNC(=N)N)NC(=O)[C@H](CCCNC(=N)N)NC(=O)[C@H](CCCNC(=N)N)NC(=O)[C@H](CCCNC(=N)N)NC(=O)[C@H](CCCNC(=N)N)NC(=O)[C@H](CCCNC(=N)N)NC(=O)[C@H](CCCNC(=N)N)NC(=O)[C@H](CCCNC(=N)N)NC(=O)[C@H](CCCNC(=N)N)NC(=O)[C@@H](N)CCCNC(=N)N)C(=O)O [NP317]
MIC (C. parapsilosis): 256 µM (≈ 444 µg/mL)
MIC, Candida albicans NCTC3179 (C. albicans): 512 µM (≈ 889 µg/mL)
MIC (Malasezzia furfur): <15.6 µM
MIC (Trichophyton rubrum): 0.25 µM (≈ 0.434 µg/mL)
MIC, Candida krusei NCPF3953 (C. krusei): 32 µM (≈ 55.6 µg/mL)

Compound: RWRWR [NP320, RWRWR]
MIC, Candida albicans NCTC3179 (C. albicans): >2000 µM

Compound: RRWRRWRR-OH [NP311]
MIC, Candida albicans NCTC3179 (C. albicans): >2000 µM

Compound: RRRVRRR [NP306, RRRVRRR]
MIC, Candida albicans NCTC3179 (C. albicans): >2000 µM
MIC (Trichophyton rubrum): >2 µM

Compound: KKKKKKKKKKKKKKK [NP348]
MIC (C. albicans; C. albicans strain NCTC3179): >2048 µM

Compound: CC(C)[C@H](NC(=O)[C@H](CCCNC(=N)N)NC(=O)[C@H](CCCNC(=N)N)NC(=O)[C@H](CCCNC(=N)N)NC(=O)[C@@H](N)CCCNC(=N)N)C(=O)N[C@H](C(=O)N[C@@H](CCCNC(=N)N)C(=O)N[C@@H](CCCNC(=N)N)C(=O)N[C@@H](CCCNC(=N)N)C(=O)N[C@@H](CCCNC(=N)N)C(=O)O)C(C)C [NP310]
MIC, Candida albicans NCTC3179 (C. albicans): >2000 µM
MIC (Trichophyton rubrum): >2 µM

Compound: N=C(N)NCCC[C@H](NC(=O)[C@H](CCCNC(=N)N)NC(=O)[C@H](CCCNC(=N)N)NC(=O)[C@H](CCCNC(=N)N)NC(=O)[C@H](CCCNC(=N)N)NC(=O)[C@H](CCCNC(=N)N)NC(=O)[C@H](CCCNC(=N)N)NC(=O)[C@H](CCCNC(=N)N)NC(=O)[C@H](CCCNC(=N)N)NC(=O)[C@H](CCCNC(=N)N)NC(=O)[C@H](CCCNC(=N)N)NC(=O)[C@H](CCCNC(=N)N)NC(=O)[C@@H](N)CCCNC(=N)N)C(=O)O [NP337]
MIC (C. parapsilosis; [1]): 32 µM (≈ 65.6 µg/mL)
MIC (C. parapsilosis; [2]): 128 µM (≈ 262 µg/mL)
MIC, Candida albicans ATCC24433 (C. albicans): 2 µM (≈ 4.1 µg/mL)
MIC, Candida albicans ATCC90028 (C. albicans): 4 µM (≈ 8.19 µg/mL)
MIC, Candida albicans NCTC3179 (C. albicans): 2 µM (≈ 4.1 µg/mL)
MIC (Malasezzia furfur; [3]): 31.25 µM (≈ 64 µg/mL)
MIC (C. krusei; C. krusei strain ATCC6258): 2 µM (≈ 4.1 µg/mL)
MIC (C. krusei; C. krusei strain NCPF3953): 16 µM (≈ 32.8 µg/mL)
MIC, Candida krusei NCPF3953 (C. krusei; [4]): 16 µM (≈ 32.8 µg/mL)
MIC (C. tropicalis): 2 µM (≈ 4.1 µg/mL)

Compound: CC(=O)N[C@@H](CCCNC(=N)N)C(=O)N[C@@H](CCCNC(=N)N)C(=O)N[C@@H](CCCNC(=N)N)C(=O)N[C@@H](CCCNC(=N)N)C(=O)N[C@@H](CCCNC(=N)N)C(=O)N[C@@H](CCCNC(=N)N)C(=O)N[C@@H](CCCNC(=N)N)C(=O)N[C@@H](CCCNC(=N)N)C(=O)N[C@@H](CCCNC(=N)N)C(=O)N[C@@H](CCCNC(=N)N)C(=O)N[C@@H](CCCNC(=N)N)C(=O)N[C@@H](CCCNC(=N)N)C(=O)N[C@@H](CCCNC(=N)N)C(N)=O [NP338]
MIC (C. parapsilosis; [1]): 8 µM (≈ 16.7 µg/mL)
MIC (C. parapsilosis; [2]): 128 µM (≈ 267 µg/mL)
MIC, Candida albicans ATCC24433 (C. albicans): 2 µM (≈ 4.18 µg/mL)
MIC, Candida albicans ATCC90028 (C. albicans): 4 µM (≈ 8.36 µg/mL)
MIC, Candida albicans NCTC3179 (C. albicans): 2 µM (≈ 4.18 µg/mL)
MIC (Malasezzia furfur; [3]): <15.6 µM
MIC (C. krusei; C. krusei strain ATCC6258): 2 µM (≈ 4.18 µg/mL)
MIC (C. krusei; C. krusei strain NCPF3953): 8 µM (≈ 16.7 µg/mL)
MIC, Candida krusei NCPF3953 (C. krusei; [4]): 8 µM (≈ 16.7 µg/mL)
MIC (C. tropicalis): 2 µM (≈ 4.18 µg/mL)

Compound: RVRVR [NP301, RVRVR]
MIC, Candida albicans NCTC3179 (C. albicans): >2000 µM
MIC (Trichophyton rubrum): >2 µM

Compound: N=C(N)NCCC[C@H](NC(=O)[C@H](CCCNC(=N)N)NC(=O)[C@H](CCCNC(=N)N)NC(=O)[C@H](CCCNC(=N)N)NC(=O)[C@H](CCCNC(=N)N)NC(=O)[C@H](CCCNC(=N)N)NC(=O)[C@H](CCCNC(=N)N)NC(=O)[C@H](CCCNC(=N)N)NC(=O)[C@H](CCCNC(=N)N)NC(=O)[C@H](CCCNC(=N)N)NC(=O)[C@H](CCCNC(=N)N)NC(=O)[C@H](CCCNC(=N)N)NC(=O)[C@@H](N)CCCNC(=N)N)C(=O)O [NP318]
MIC (C. parapsilosis; [1]): 256 µM (≈ 524 µg/mL)
MIC, Candida albicans NCTC3179 (C. albicans): 4 µM (≈ 8.19 µg/mL)
MIC (Malasezzia furfur; [3]): 62.5 µM (≈ 128 µg/mL)
MIC (Trichophyton rubrum; Trichophyton rubrum strain NCPF118): >2 µM
MIC (C. krusei; C. krusei strain ATCC6258): <16 µM
MIC (C. krusei; C. krusei strain NCPF3953): 8 µM (≈ 16.4 µg/mL)
MIC, Candida krusei NCPF3953 (C. krusei; [4]): 8 µM (≈ 16.4 µg/mL)

Compound: RRWWR [NP321, RRWWR]
MIC, Candida albicans NCTC3179 (C. albicans): >2000 µM

Compound: RRVRR [NP303, RRVRR]
MIC, Candida albicans NCTC3179 (C. albicans): >2000 µM
MIC (Trichophyton rubrum): >2 µM

Other lines, results leading:

MIC, Candida albicans NCTC3179 (C. albicans): >2000 µM
Compound: RRWRR [NP322, RRWRR]

MIC (C. albicans): 1024 µM
MIC, Candida albicans ATCC24433 (C. albicans): 1024 µM
MIC, Candida albicans ATCC90028 (C. albicans): 1024 µM
MIC, Candida albicans NCTC3179 (C. albicans): 2000 µM
MIC (C. krusei): 128 µM
MIC, Candida krusei NCPF3953 (C. krusei): 128 µM
Compound: RRWRWRR [NP326, RRWRWRR]

MIC, Candida albicans ATCC24433 (C. albicans): 1024 µM
MIC, Candida albicans ATCC90028 (C. albicans): 1024 µM
MIC, Candida albicans NCTC3179 (C. albicans): 1024 µM
MIC (C. krusei): 128 µM
MIC, Candida krusei NCPF3953 (C. krusei): 128 µM
Compound: RRWRRWRR [NP328]

MIC (C. albicans): >2048 µM
Compound: KKKKK [NP343, KKKKK]

MIC (C. albicans): 1024 µM
MIC, Candida albicans ATCC24433 (C. albicans): 512 µM
MIC, Candida albicans NCTC3179 (C. albicans): 256 µM
MIC (C. krusei): 32 µM
MIC, Candida krusei NCPF3953 (C. krusei): 32 µM
Compound: RRRRWWRRRR [NP329]

MIC (C. albicans): >2048 µM
Compound: N=C(N)NCCC[C@H](NC(=O)[C@H](CCCNC(=N)N)NC(=O)[C@@H](N)CCCNC(=N)N)C(=O)O [NP356, RRR] (H-Arg-Arg-Arg-OH; N-terminus and C-terminus assumed)

MIC (C. albicans): 1024 µM
MIC, Candida albicans ATCC24433 (C. albicans): 1024 µM
MIC, Candida albicans ATCC90028 (C. albicans): 1024 µM
MIC, Candida albicans NCTC3179 (C. albicans): 1024 µM
MIC (C. krusei): 256 µM
MIC, Candida krusei NCPF3953 (C. krusei): 256 µM
Compound: RRWWRR [NP324, RRWWRR]

MIC (C. albicans): >2048 µM
Compound: N=C(N)NCCC[C@H](NC(=O)[C@H](CCCNC(=N)N)NC(=O)[C@H](CCCNC(=N)N)NC(=O)[C@H](CCCNC(=N)N)NC(=O)[C@H](CCCNC(=N)N)NC(=O)[C@H](CCCNC(=N)N)NC(=O)[C@@H](N)CCCNC(=N)N)C(=O)O [NP358, RRRRRRR]

MIC, Candida albicans NCTC3179 (C. albicans): >2000 µM
Compound: KKKKKEGKKQEKMLD [NP333]

MIC, Candida albicans NCTC3179 (C. albicans): >2000 µM
Compound: RRRWRRR [NP325, RRRWRRR]

MIC, Candida albicans ATCC24433 (C. albicans): 1024 µM
MIC, Candida albicans ATCC90028 (C. albicans): 2000 µM
MIC, Candida albicans NCTC3179 (C. albicans): 1024 µM
MIC (C. krusei): 256 µM
MIC, Candida krusei NCPF3953 (C. krusei): 256 µM
Compound: RRWRWR [NP323, RRWRWR]
